# Experimental data: patent US9724380B2, “Method and compositions for synchronizing time of insemination in gilts” (JBS UNITED ANIMAL HEALTH II LLC, priority 2012, dated 2017)
# Columns and labels:
# [1] = system: serum LH; experiment: Example 5: serum LH surge after triptorelin gel (jugular catheter subpopulation); assay type: in vivo, swine
# Experimental: (§1) All gilts were individually fed MATRIX® as a top-dress for 14 or 15 days at the recommended rate of 15 mg/gilt/day. Gilts were withdrawn from MATRIX® feeding (last top-dress in the morning on Day 0) and allocated to each of the following treatments. Controls were vehicle gel treated (vehicle gel without triptorelin) at 120 (+/−2) hours following MATRIX® withdrawal (last top dress). The other gilts were given 100, 200 or 400 mcg triptorelin as the acetate in a methylcellulose gel formulation 120 (+/−2) hours following MATRIX® withdrawal. The four treatments were: • 1. Vehicle gel (VG): vehicle gel without triptorelin at 120 (+/−2) hours after MATRIX® withdrawal. • 2. TG 100: 100 mcg (2 mL 50 mcg/mL) triptorelin gel at 120 (+/−2) hours after MATRIX® withdrawal. • 3. TG 200: 200 mcg (2 mL 100 mcg/mL) triptorelin gel at 120 (+/−2) hours after MATRIX® withdrawal. • 4. TG 400: 400 mcg (2 mL 200 mcg/mL) triptorelin gel at 120 (+/−2) hours after MATRIX® withdrawal.
# A catheter was inserted non-surgically into the jugular vein (Kraeling et al. 1982) of a subpopulation of gilts in each treatment group (vehicle gel, n=8; 100 mcg triptorelin, n=6; 200 mcg triptorelin, n=7 and 400 mcg triptorelin, n=6). Ten mL blood samples were collected every 15 minutes for one hour prior to treatment, immediately following treatment (0) and at 0.5, 1, 2, 4, 6, 12, 18, 24, 36 and 48 hours after treatment. Blood samples were maintained at 4° C. until centrifuged at 800×g for 15 minutes within 12 hours of collection. The resulting serum was stored frozen until assayed for LH using validated procedures for pig serum (Kesner et al., 1987 and Kraeling et al., 1982). Onset, duration, and magnitude of the LH surge were analyzed. The LH data were analyzed with the General Linear Models procedure of SAS. Differences between treatments were tested on least squares means estimates using the T test at P<0.05. Onset of the LH surge is when serum LH concentration is greater than or equal to two standard deviations of the mean of the pre-treatment serum LH concentrations. Duration of the LH surge is the period between onset and when serum LH concentration is again less than or equal to two standard deviations of the mean of the pre-treatment serum LH concentrations. Magnitude of the LH surge is the maximum serum LH concentration reached during the LH surge.
# (§2) A single 2 mL dose of triptorelin gel or vehicle gel was deposited within approximately 1-2 cm posterior to the cervix with a catheter similar to those used for artificial insemination. The dose was delivered using a standard multi-dose applicator attached to the catheter. A new disposable sheath, which surrounds the catheter, was used for each gilt.
# [2] = system: gilts; experiment: Example 5: ovulation monitored by transrectal ultrasonography after 100, 200 or 400 mcg triptorelin gel intravaginally at 120 h after MATRIX withdrawal; assay type: in vivo, swine; conditions: for Percentage ovulated by 48 hours: blood-sampled subpopulation; for % of Sows Ovulating: raw average, PTK 2-07
# Experimental: as §1
# Triptorelin (pGlu-His-Trp-Ser-Tyr-D-Trp-Leu-Arg-Pro-Gly-NH2) was supplied in the acetate form, from Bachem, Torrance, Calif. (Item H-4075 CGMP grade). Triptorelin gel (100-400 mcg/2 mL dose) was formulated by Argenta (Auckland, NZ) in a gel composed of Methocel Premium A4000 (Dow Chemical), citrate buffer (pH 5.5), NaCl, methionine, and methyl and propyl parabens. Fifty-four milliliters of triptorelin gel (100 mcg triptorelin acetate/mL) was packaged in Amber Borosilicate Glass Serum Vials (610206-50) with a Gray Butyl Pharmaceutical Serum Vial Stopper (73828A-SS) with a Standard Aluminum Seal (SAS20NAT). […] MATRIX® was supplied as the US commercially available form.
# Ovulation was monitored twice on Day 5 (8 hours and 16 hours post-treatment) and every 8 hours on Day 6 and Day 7 or until ovulation was confirmed or 176 hours following last MATRIX® feeding. The ovulatory status of all gilts was monitored by transrectal ultrasonography. An Aloka 500 ultrasound machine is used for this purpose, with a 7.5 MHz linear array transducer attached to a fixed-angle PVC stabilizing rod to facilitate insertion into the rectum. The transducer and PVC rod are coated with a gynecological lubricant and gently inserted into the rectum until the ovaries can be visualized, one at a time. The diameters of the three largest follicles were recorded (to the nearest 0.1 mm) at each scanning. A gilt was declared to have ovulated when the number of large follicles (≧6.5 mm) fell to less than 3.
# as §2
# [3] = 200 mcg T, LS mean (1 gilt with surge)
# [4] = 200 mcg T, relative to time of triptorelin gel treatment, LS mean (1 gilt with surge)
smiles,measurement,setting,value
"CC(C)C[C@H](NC(=O)[C@@H](Cc1c[nH]c2ccccc12)NC(=O)[C@H](Cc1ccc(O)cc1)NC(=O)[C@H](CO)NC(=O)[C@H](Cc1c[nH]c2ccccc12)NC(=O)[C@H](Cc1c[nH]cn1)NC(=O)[C@@H]1CCC(=O)N1)C(=O)N[C@@H](CCCNC(=N)N)C(=O)N1CCC[C@H]1C(=O)NCC(N)=O [T, pGlu-His-Trp-Ser-Tyr-D-Trp-Leu-Arg-Pro-Gly-NH2]","Gilts, which displayed a LH surge (number)",[1]; 100 mcg T (n = 6),4
same,Magnitude of LH surge (maximum serum LH concentration),"[1]; 100 mcg T, LS mean ± SE",3.94 ± 1.22
same,Onset of LH surge,"[1]; 100 mcg T, relative to time of triptorelin gel treatment, LS mean ± SE",4 ± 3
same,"Gilts, which displayed a LH surge (number)",[1]; 200 mcg T (n = 7),1
same,Duration of LH surge,[1]; [3],18
same,Magnitude of LH surge (maximum serum LH concentration),[1]; [3],8.98
same,Onset of LH surge,[1]; [4],0.5
same,Time of maximum LH conc.,[1]; [4],4
same,"Gilts, which displayed a LH surge (number)",[1]; 400 mcg T (n = 6),5
same,Magnitude of LH surge (maximum serum LH concentration),"[1]; 400 mcg T, LS mean ± SE",11.65 ± 12.35
same,Onset of LH surge,"[1]; 400 mcg T, relative to time of triptorelin gel treatment, LS mean ± SE",4 ± 4
same,Percentage ovulated by 48 hours,[2]; 100 mcg T (n = 6),100%
same,% of Sows Ovulating,"[2]; 100 mcg T, 128 h post-MATRIX (8 h post-T)",0.0%
same,% of Sows Ovulating,"[2]; 100 mcg T, 136 h post-MATRIX (16 h post-T)",5.0%
same,% of Sows Ovulating,"[2]; 100 mcg T, 144 h post-MATRIX (24 h post-T)",20.0%
same,% of Sows Ovulating,"[2]; 100 mcg T, 152 h post-MATRIX (32 h post-T)",30.0%
same,% of Sows Ovulating,"[2]; 100 mcg T, 160 h post-MATRIX (40 h post-T)",60.0%
same,% of Sows Ovulating,"[2]; 100 mcg T, 168 h post-MATRIX (48 h post-T)",95.0%
same,% of Sows Ovulating,"[2]; 100 mcg T, 176 h post-MATRIX (56 h post-T)",100.0%
same,Percentage ovulated by 48 hours,[2]; 200 mcg T (n = 7),100%
same,% of Sows Ovulating,"[2]; 200 mcg T, 128 h post-MATRIX (8 h post-T)",0.0%
same,% of Sows Ovulating,"[2]; 200 mcg T, 136 h post-MATRIX (16 h post-T)",0.0%
same,Percentage ovulated by 48 hours,[2]; 400 mcg T (n = 6),100%
same,% of Sows Ovulating,"[2]; 400 mcg T, 128 h post-MATRIX (8 h post-T)",4.5%
same,% of Sows Ovulating,"[2]; 400 mcg T, 136 h post-MATRIX (16 h post-T)",9.1%
same,% of Sows Ovulating,"[2]; 400 mcg T, 168 h post-MATRIX (48 h post-T)",100.0%
same,% of Sows Ovulating,"[2]; 400 mcg T, 176 h post-MATRIX (56 h post-T)",100.0%
